From ChEMBL document CHEMBL3988442, “University of Dundee, Small-Polar-MMV Screening Library” (2021)
Where “and” joins values, the source holds several entries; their conditions need not be identical. Identical values can stand only once.

Columns and labels:
[1] = tested on: Plasmodium falciparum; assay: Plasmodium falciparum sporozoite viability assay; type: functional, organism-based; conditions: for IC50: Plasmodium falciparum
[2] = molecular target: Lysine--tRNA ligase (Plasmodium falciparum (isolate 3D7), UniProt Q8IDJ8); assay: Pf-KRS-1 (Lysyl-RNA Synthetase-1, KRS-1, cytosolic KRS) from Plasmodium falciparum. Inhibitor assay, 384 well plate, luminescence read.; type: functional
[3] = molecular target: Sialic acid-binding Ig-like lectin 9 (Homo sapiens, UniProt Q9Y336); assay: Hs-Siglec9 ALPHAscreen SOP 20170721
[4] = molecular target: Polyketide synthase Pks13 (Mycobacterium tuberculosis (strain ATCC 25618 / H37Rv), UniProt I6X8D2); assay: Mycobacterium tuberculosis Polyketide synthase 13 Thioesterase (PKS13); type: functional
[5] = molecular target: T1, Coenzyme A biosynthesis bifunctional protein CoaBC (Mycobacterium tuberculosis (strain ATCC 25618 / H37Rv), UniProt P9WNZ1); assay: Biomol Green assay for MtCoaBC inhibitor, OD650 read; type: functional
T1 sequence (P9WNZ1 whole entry): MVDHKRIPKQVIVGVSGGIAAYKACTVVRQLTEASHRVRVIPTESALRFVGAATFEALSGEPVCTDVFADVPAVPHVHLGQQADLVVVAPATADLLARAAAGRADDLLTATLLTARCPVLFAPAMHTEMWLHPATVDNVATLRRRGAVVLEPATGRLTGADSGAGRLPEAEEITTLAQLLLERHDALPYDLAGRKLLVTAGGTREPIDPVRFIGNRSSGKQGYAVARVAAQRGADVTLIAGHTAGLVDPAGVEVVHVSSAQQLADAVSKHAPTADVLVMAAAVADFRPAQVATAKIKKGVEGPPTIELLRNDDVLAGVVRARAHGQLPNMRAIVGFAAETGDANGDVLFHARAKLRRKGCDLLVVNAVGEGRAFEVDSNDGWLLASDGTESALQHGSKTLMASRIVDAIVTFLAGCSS

Sialic acid-binding Ig-like lectin 9, sequence (Q9Y336 whole entry): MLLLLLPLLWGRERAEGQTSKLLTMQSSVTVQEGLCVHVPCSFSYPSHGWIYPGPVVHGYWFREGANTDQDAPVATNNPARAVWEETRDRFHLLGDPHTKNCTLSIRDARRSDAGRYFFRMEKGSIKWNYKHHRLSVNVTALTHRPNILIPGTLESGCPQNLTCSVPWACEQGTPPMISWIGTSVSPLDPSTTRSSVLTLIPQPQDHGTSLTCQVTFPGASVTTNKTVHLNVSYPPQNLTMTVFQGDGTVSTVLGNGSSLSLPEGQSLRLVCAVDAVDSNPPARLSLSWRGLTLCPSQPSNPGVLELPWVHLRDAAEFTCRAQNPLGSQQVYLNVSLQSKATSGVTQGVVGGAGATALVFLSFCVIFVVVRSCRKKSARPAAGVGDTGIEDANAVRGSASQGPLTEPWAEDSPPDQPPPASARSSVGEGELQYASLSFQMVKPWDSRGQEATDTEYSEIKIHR
Polyketide synthase Pks13, sequence (I6X8D2 whole entry): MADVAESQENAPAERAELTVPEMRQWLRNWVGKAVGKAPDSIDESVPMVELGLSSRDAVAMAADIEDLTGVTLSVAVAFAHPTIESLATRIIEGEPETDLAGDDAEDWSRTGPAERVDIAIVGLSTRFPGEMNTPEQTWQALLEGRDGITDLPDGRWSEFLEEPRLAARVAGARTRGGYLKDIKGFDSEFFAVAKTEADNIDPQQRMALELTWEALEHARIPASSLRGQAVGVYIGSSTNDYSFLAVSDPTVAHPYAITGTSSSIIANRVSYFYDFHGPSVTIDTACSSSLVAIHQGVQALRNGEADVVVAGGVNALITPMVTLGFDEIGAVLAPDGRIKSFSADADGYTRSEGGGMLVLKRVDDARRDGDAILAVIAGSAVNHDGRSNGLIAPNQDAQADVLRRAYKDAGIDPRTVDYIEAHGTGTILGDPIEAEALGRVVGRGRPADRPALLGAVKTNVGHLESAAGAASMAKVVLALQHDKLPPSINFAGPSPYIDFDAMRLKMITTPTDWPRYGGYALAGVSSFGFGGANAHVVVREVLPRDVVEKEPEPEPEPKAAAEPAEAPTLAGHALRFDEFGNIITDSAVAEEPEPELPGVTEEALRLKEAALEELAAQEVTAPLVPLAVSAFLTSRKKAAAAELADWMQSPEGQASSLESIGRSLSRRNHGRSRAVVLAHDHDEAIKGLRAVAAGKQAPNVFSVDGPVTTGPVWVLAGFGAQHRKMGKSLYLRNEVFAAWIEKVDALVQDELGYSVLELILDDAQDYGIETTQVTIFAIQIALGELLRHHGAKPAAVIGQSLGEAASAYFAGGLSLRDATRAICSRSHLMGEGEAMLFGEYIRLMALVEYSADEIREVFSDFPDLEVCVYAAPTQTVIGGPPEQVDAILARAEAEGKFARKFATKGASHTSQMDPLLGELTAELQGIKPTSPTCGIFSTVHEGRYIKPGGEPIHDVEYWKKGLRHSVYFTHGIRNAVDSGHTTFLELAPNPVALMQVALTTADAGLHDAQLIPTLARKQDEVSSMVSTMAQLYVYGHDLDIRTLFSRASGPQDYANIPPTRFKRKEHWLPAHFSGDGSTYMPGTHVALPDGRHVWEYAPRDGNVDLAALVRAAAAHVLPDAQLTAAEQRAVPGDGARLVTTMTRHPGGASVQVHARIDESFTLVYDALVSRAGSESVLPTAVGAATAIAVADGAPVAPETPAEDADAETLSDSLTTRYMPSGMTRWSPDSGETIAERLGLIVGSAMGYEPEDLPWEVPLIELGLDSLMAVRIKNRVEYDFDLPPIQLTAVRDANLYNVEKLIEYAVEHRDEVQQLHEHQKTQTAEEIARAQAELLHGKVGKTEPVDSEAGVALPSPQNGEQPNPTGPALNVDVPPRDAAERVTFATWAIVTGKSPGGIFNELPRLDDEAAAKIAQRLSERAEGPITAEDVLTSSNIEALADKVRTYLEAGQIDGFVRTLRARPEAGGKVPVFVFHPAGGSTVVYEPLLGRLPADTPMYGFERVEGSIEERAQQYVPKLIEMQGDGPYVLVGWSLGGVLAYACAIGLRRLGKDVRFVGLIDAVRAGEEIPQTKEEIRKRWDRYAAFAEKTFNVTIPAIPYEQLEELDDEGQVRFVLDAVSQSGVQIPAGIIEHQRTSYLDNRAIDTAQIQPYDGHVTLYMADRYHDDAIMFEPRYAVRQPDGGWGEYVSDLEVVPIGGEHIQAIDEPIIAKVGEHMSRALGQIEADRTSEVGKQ
Lysine--tRNA ligase, sequence (Q8IDJ8 whole entry): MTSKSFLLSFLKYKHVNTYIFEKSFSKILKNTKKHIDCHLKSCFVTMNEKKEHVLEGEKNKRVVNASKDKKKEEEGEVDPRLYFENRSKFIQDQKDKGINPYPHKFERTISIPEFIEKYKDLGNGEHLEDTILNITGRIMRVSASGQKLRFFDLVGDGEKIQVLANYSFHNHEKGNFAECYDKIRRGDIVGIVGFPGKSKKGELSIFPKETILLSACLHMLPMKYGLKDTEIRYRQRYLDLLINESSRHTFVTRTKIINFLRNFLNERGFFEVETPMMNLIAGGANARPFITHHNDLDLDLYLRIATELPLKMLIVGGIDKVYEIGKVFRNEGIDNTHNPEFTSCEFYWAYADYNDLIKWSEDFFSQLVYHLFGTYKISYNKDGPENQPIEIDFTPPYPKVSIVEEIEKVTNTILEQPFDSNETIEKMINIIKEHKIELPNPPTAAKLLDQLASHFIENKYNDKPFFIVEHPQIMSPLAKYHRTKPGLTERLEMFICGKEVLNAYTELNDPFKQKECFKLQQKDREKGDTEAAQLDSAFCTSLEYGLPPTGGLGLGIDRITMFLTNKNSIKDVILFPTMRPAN

| Structure (SMILES) | pIC50 [1] | IC50 [1] | also measured |
| --- | --- | --- | --- |
| COc1ccc2cc(C3CN(C(=O)N(C)C)CCO3)ccc2c1 (stereo unspecified) | 7.993 | 14.9 nM |  |
| CO[C@H]1C[C@@H](O)C12CCN(C(=O)CCCOc1ccccc1)CC2 | 6.089 and 6.557 |  |  |
| COC(=O)CC1CCN(C(=O)Nc2ccc(-c3ccn[nH]3)cc2)C1 (stereo unspecified) | 6.226 | 436 nM |  |
| c1cncc(OCc2nc(C3CC3)nn2-c2ccc3c(c2)OCCO3)c1 | 5.428 | 3840 nM |  |
| NC(=O)c1ccc(NC(=O)Cn2cc(I)cn2)cc1 | 5.308 | 3070 nM |  |
| c1ccc2sc(CN3CCCC3c3noc(C4CC4)n3)nc2c1 (stereo unspecified) | 5.79 and 6.107 |  |  |
| Cc1nnc(CN(C)Cc2nc3c(s2)CCCC3)o1 | 5.52 | 3560 nM |  |
| CSc1cc2c(cc1NC(=O)NCCn1ccnc1)OCCO2 | 6.776 | 126 nM |  |
| COc1cccc(-c2noc(C3CCN(CC(N)=O)C3)n2)c1 (stereo unspecified) |  | > 10500 nM |  |
| O=C(NCCNc1cc(N2CCCC2)cnn1)Nc1ccccc1F | 6.092 | 819 nM |  |
| CCn1ncc2c1CCCC2NCc1cccc2c1OCO2 (stereo unspecified) | 5.451 | 4370 nM |  |
| CC(C)C(=O)N1CCN(Cc2csc(-c3ccccn3)n2)CC1 | 5.915 | 965 nM |  |
| CN1CCOC(C(=O)Nc2ccc3c(c2)nc(C(C)(C)C)n3C)C1 (stereo unspecified) | 7.552 | 16.9 nM |  |
| CN1CCN(C2CCN(c3cnc4ccccc4n3)CC2)C1=O | 7.03 and 7.343 |  |  |
| c1cc(-c2noc(CN3CCc4c(ncn4C4CC4)C3)n2)cs1 | 5.546 | 2470 nM |  |
| O=C(Nc1ccc(N2CCCC2)nc1)N1CCc2ccccc2C1 | 5.522 | 2030 nM |  |
| CCc1n[nH]c(C(=O)NCCn2nccc2C)c1C |  | > 10500 nM |  |
| c1ccc2sc(CN3CCOC(Cn4cccn4)C3)nc2c1 (stereo unspecified) | 6.078 and 6.413 |  |  |
| c1cnc(N2CCC3(CCN(CC4CCOC4)CC3)CC2)nc1 (stereo unspecified) |  |  | IC50 [2]: > 50100 nM; IC50 [3]: > 30200 nM |
| COc1cccc(-c2noc(C3CCN(Cc4cn(C)nc4C)C3)n2)c1 (stereo unspecified) | 5.995 | 863 nM |  |

| Structure (SMILES) | pIC50 [1] | IC50 [1] | also measured |
| --- | --- | --- | --- |
| CSc1ccc(-c2nc(CN3CCC(NC(C)=O)C3)c(C)o2)cc1 (stereo unspecified) | 6.077 | 533 nM |  |
| CCCc1cc(CNC2CCN(c3nc4ccccc4s3)CC2)on1 | 5.685 | 1840 nM |  |
| OCC1CCCN1c1cc(NCCc2ccccn2)ncn1 (stereo unspecified) | 7.276 | 51.7 nM |  |
| O=C(CCn1cccn1)NS(=O)(=O)N1CCCc2ccccc21 | 6.348 | 495 nM |  |
| Cc1cc(NC(=O)c2ccc(CN3CC[C@H](O)C3)cc2)ccc1F | 7.801 | 15.2 nM |  |
| Cn1c(-c2cc3n(n2)CCCN(CC(=O)O)C3)nc2ccccc21 | 5.921 and 6.257 |  |  |
| c1ccc(-c2noc(CN3CCc4cncnc4C3)n2)nc1 | 5.93 and 5.587 |  |  |
| CN1CCOC(CNC(=O)CCCOc2ccccc2F)C1 (stereo unspecified) | 5.757 and 6.214 |  |  |
| OC1CCN(c2ccc(CNc3nc4ccccc4s3)cc2F)CC1 | 7.297 and 6.882 |  |  |
| CC(C)(C)n1ncc2c(=O)n(CC(=O)NCc3ccccc3)cnc21 | 7.194 | 43 nM |  |
| c1cc(OCc2ccc3c(c2)OCO3)ccc1CNC1CC1 |  | > 10500 nM |  |
| CC(C)(C)c1cn2nc(N3CCCC(Cn4cncn4)C3)sc2n1 (stereo unspecified) | 4.991 | > 10500 nM |  |
| Cc1ncsc1CN(C)Cc1cc2c(cc1OC(F)F)OCO2 | 5.624 | 3970 nM |  |
| O=C(Cc1ccc2c(c1)OCCO2)N1CCCC(n2cccn2)C1 (stereo unspecified) | < 4.98 and 5.311 |  |  |
| Cn1cnc2c1CCN(Cc1csc(-c3ccccc3F)n1)C2 | 6.45 | 363 nM |  |
| c1ccc2sc(CN3CCOC(Cn4cncn4)C3)nc2c1 (stereo unspecified) | 6.123 | 621 nM |  |
| CC(C)(C)n1ncc2c(=O)n(CC(=O)NCc3ccccc3Cl)cnc21 | 7.103 | 103 nM |  |
| Cc1cc(C(=O)NCc2cc(C)oc2C)no1 |  |  | IC50 [3]: > 30200 nM; IC50 [4]: > 100000 nM |
| Cc1cc(C(=O)N2CCCC(c3cc(=O)nc4n3CCC4)C2)on1 (stereo unspecified) |  |  | IC50 [5]: > 30200 nM; IC50 [3]: > 30200 nM |
